Measured values reported in PubChem BioAssay AID248 (DTP/NCI, 2004).
Values joined by “and” are separate entries in the source; they are usually repeats but may differ in a detail not shown here. Identical values can stand only once. Inconclusive results and toxic doses are left out. No stated cut-off is given here; in the data, active means T/C of 150% or more; inactive means T/C below 125%.

Tested on: L1210 leukemia ip in BDF1 mice, survival T/C
Assay: NCI In Vivo Anticancer Drug Screen. Data for tumor model L1210 Leukemia (intraperitoneal) in B6D2F1 (BDF1) mice
Conditions: endpoint: mean survival time, higher = longer survival
In short: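 Transplanted-tumor mice were given test agent; controls received vehicle only. Survival readings from the two groups were divided (treated over control).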

[1] = dose: 100.0 mg/kg/injection, schedule: Q01DX001 (ip), vehicle: other
[2] = dose: 200.0 mg/kg/injection, schedule: Q01DX001 (ip), vehicle: other
[3] = dose: 400.0 mg/kg/injection, schedule: Q01DX001 (ip), vehicle: other
[4] = dose: 100.0 mg/kg/injection, schedule: Q01DX009 (ip), vehicle: saline with Tween-80
[5] = dose: 200.0 mg/kg/injection, schedule: Q01DX009 (ip), vehicle: saline with Tween-80
[6] = dose: 100.0 mg/kg/injection, schedule: Q04DX003 (ip), vehicle: saline with Tween-80
[7] = dose: 200.0 mg/kg/injection, schedule: Q04DX003 (ip), vehicle: saline with Tween-80
[8] = dose: 400.0 mg/kg/injection, schedule: Q04DX003 (ip), vehicle: saline with Tween-80
[9] = dose: 400.0 mg/kg/injection, schedule: Q01DX009 (ip), vehicle: saline with Tween-80
[10] = dose: 50.0 mg/kg/injection, schedule: Q04DX002 (ip), vehicle: Klucel (hydroxypropylcellulose) (HPC)
[11] = dose: 100.0 mg/kg/injection, schedule: Q04DX002 (ip), vehicle: Klucel (hydroxypropylcellulose) (HPC)
[12] = dose: 100.0 mg/kg/injection, schedule: Q04DX003 (ip), vehicle: Klucel (hydroxypropylcellulose) (HPC)
[13] = dose: 100.0 mg/kg/injection, schedule: Q01DX009 (ip), vehicle: Klucel (hydroxypropylcellulose) (HPC)
[14] = dose: 200.0 mg/kg/injection, schedule: Q01DX009 (ip), vehicle: Klucel (hydroxypropylcellulose) (HPC)
[15] = dose: 400.0 mg/kg/injection, schedule: Q01DX009 (ip), vehicle: Klucel (hydroxypropylcellulose) (HPC)

Measured: T/C

Nc1cc(C(=O)O)[nH]c(=S)n1
inactive: dose: 100.0 mg/kg/injection, schedule: Q01DX Z (ip), vehicle: methylcellulose (MC) 100 % of control | dose: 200.0 mg/kg/injection, schedule: Q01DX Z (ip), vehicle: methylcellulose (MC) 100 % of control

CN=C(c1ccc(NC(=O)c2ccc(C(=O)Nc3ccc(C(=NC)N(C)C)cc3)cc2)cc1)N(C)C
inactive: dose: 0.94 mg/kg/injection, schedule: Q01DX Z (ip), vehicle: saline 94 % of control | dose: 1.88 mg/kg/injection, schedule: Q01DX Z (ip), vehicle: saline 101 % of control | dose: 3.75 mg/kg/injection, schedule: Q01DX Z (ip), vehicle: saline 97 % of control | dose: 7.5 mg/kg/injection, schedule: Q01DX Z (ip), vehicle: saline 111 % of control

O=C(/C(=N/O)c1ccccc1)c1ccccc1
inactive: dose: 50.0 mg/kg/injection, schedule: Q01DX001 (ip), vehicle: other 103 % of control | [1] 97 % of control | [2] 105 % of control | [3] 100 % of control

CCCNC(C)(C)C(SSSC(c1ccc(C(F)(F)F)cc1)C(C)(C)NCCC)c1ccc(C(F)(F)F)cc1 (stereo not given)
inactive: [4] 96 % of control | [5] 100 % of control

[O-][n+]1onc2c(-c3ccccc3)nnc(-c3ccccc3)c21
inactive: [6] 108 % of control | [7] 110 % of control | [8] 111 % of control

CCCCOP(OCCCC)Oc1ccccc1
inactive: dose: 50.0 mg/kg/injection, schedule: Q01DX009 (ip), vehicle: saline with Tween-80 89 % of control | [4] 89 % of control | [6] 97 % of control | [5] 100 % of control | [7] 96 % of control | [8] 103 % of control

CCCC(C)(C)C(=O)Nc1cccc(OC(=O)NC(C)(C)C)c1
inactive: [4] 88 % of control | [5] 86 % of control | [9] 89 % of control

O=C(O)c1ccccc1C(=O)NCCCc1ccccc1
inactive: [1] 98 % of control | [2] 98 % of control | [3] 96 % of control

Cc1cc2c([N+](=O)[O-])c3cccnn3c2nn1
inactive: [10] 114 % of control | [11] 111 % of control | dose: 200.0 mg/kg/injection, schedule: Q04DX002 (ip), vehicle: Klucel (hydroxypropylcellulose) (HPC) 91 % of control

CCC(=O)O[C@H]1CC[C@H]2[C@@H]3[C@@H](C)CC4=CC(=O)CC[C@]4(C)[C@H]3CC[C@]12C
inactive: [4] 93 % of control | [6] 90 % of control | [7] 90 % of control | [9] 91 % of control | [8] 87 % of control

O=C(Nc1ccc(Cl)cc1[N+](=O)[O-])OCC1CC2C=CC1C2 (stereo not given)
inactive: dose: 100.0 mg/kg/injection, schedule: Q01DX001 (ip), vehicle: saline with Tween-80 94 % of control and 87 % of control | [4] 94 % of control and 98 % of control | dose: 100.0 mg/kg/injection, schedule: Q04DX002 (ip), vehicle: saline with Tween-80 96 % of control and 97 % of control | [6] 94 % of control and 98 % of control | dose: 200.0 mg/kg/injection, schedule: Q01DX001 (ip), vehicle: saline with Tween-80 93 % of control and 102 % of control | [5] 100 % of control | dose: 200.0 mg/kg/injection, schedule: Q04DX002 (ip), vehicle: saline with Tween-80 97 % of control and 100 % of control | [7] 98 % of control and 101 % of control | dose: 400.0 mg/kg/injection, schedule: Q01DX001 (ip), vehicle: saline with Tween-80 97 % of control and 101 % of control | [9] 100 % of control | dose: 400.0 mg/kg/injection, schedule: Q04DX002 (ip), vehicle: saline with Tween-80 93 % of control and 87 % of control | [8] 100 % of control and 91 % of control

Cn1cc(Br)c2ccccc2c1=O
inactive: dose: 25.0 mg/kg/injection, schedule: Q04DX003 (ip), vehicle: Klucel (hydroxypropylcellulose) (HPC) 87 % of control | dose: 50.0 mg/kg/injection, schedule: Q04DX003 (ip), vehicle: Klucel (hydroxypropylcellulose) (HPC) 101 % of control | [12] 94 % of control and 124 % of control

O=C(c1c2c(nc3ccccc13)CCCC2)N1CCOCC1
inactive: dose: 100.0 mg/kg/injection, schedule: Q01DX001 (ip), vehicle: saline 100 % of control | dose: 200.0 mg/kg/injection, schedule: Q01DX001 (ip), vehicle: saline 97 % of control | dose: 400.0 mg/kg/injection, schedule: Q01DX001 (ip), vehicle: saline 97 % of control

CCCC(C(=O)O)C(O)(CC(=O)O)C(=O)O (stereo not given)
inactive: dose: 100.0 mg/kg/injection, schedule: Q04DX003 (ip), vehicle: saline 101 % of control | dose: 200.0 mg/kg/injection, schedule: Q04DX003 (ip), vehicle: saline 101 % of control | dose: 400.0 mg/kg/injection, schedule: Q04DX003 (ip), vehicle: saline 95 % of control

COc1cccc(NC(=S)/C(=C(/[O-])c2ccc([N+](=O)[O-])cc2)[n+]2ccccc2)c1
inactive: [13] 97 % of control | [14] 98 % of control | [15] 94 % of control

CC(C)(C)NC(=O)NCCc1ccccc1
inactive: [13] 106 % of control | [12] 96 % of control | dose: 200.0 mg/kg/injection, schedule: Q04DX003 (ip), vehicle: Klucel (hydroxypropylcellulose) (HPC) 97 % of control and 89 % of control | [15] 103 % of control | dose: 400.0 mg/kg/injection, schedule: Q04DX003 (ip), vehicle: Klucel (hydroxypropylcellulose) (HPC) 91 % of control and 92 % of control

O=[N+]([O-])c1ccccc1/C=N/Nc1nnc(N/N=C/c2ccccc2[N+](=O)[O-])c2ccccc12
inactive: dose: 50.0 mg/kg/injection, schedule: Q01DX001 (ip), vehicle: carboxymethylcellulose (CMC) 104 % of control | dose: 100.0 mg/kg/injection, schedule: Q01DX001 (ip), vehicle: carboxymethylcellulose (CMC) 93 % of control | dose: 200.0 mg/kg/injection, schedule: Q01DX001 (ip), vehicle: carboxymethylcellulose (CMC) 98 % of control | dose: 400.0 mg/kg/injection, schedule: Q01DX001 (ip), vehicle: carboxymethylcellulose (CMC) 98 % of control

O=C(O)COc1cc(F)c(Cl)cc1Cl
inactive: [13] 100 % of control | [14] 90 % of control

Cc1cc2c([N+](=O)[O-])c3ccc(N4CCCCC4)nn3c2n[n+]1[O-]
inactive: dose: 31.3 mg/kg/injection, schedule: Q04DX002 (ip), vehicle: Klucel (hydroxypropylcellulose) (HPC) 95 % of control | dose: 62.5 mg/kg/injection, schedule: Q04DX002 (ip), vehicle: Klucel (hydroxypropylcellulose) (HPC) 111 % of control | dose: 125.0 mg/kg/injection, schedule: Q04DX002 (ip), vehicle: Klucel (hydroxypropylcellulose) (HPC) 122 % of control

COC(=O)C1C2CC3c4[nH]c5cc(OC)ccc5c4CCN3CC2CC(O)C1OC (stereo not given)
inactive: [10] 96 % of control | [11] 90 % of control

CC1=NC(C)CNC(C)(C)CC(C)=NC(C)CNC(C)(C)C1 (stereo not given)
inactive: dose: 25.0 mg/kg/injection, schedule: Q04DX002 (ip), vehicle: Klucel (hydroxypropylcellulose) (HPC) 88 % of control | [10] 94 % of control | [11] 112 % of control

CC1CC(C)(C)N=C(CCC2CCCCCC2=O)O1 (stereo not given)
inactive: dose: 25.0 mg/kg/injection, schedule: Q01DX009 (ip), vehicle: saline 98 % of control | dose: 50.0 mg/kg/injection, schedule: Q01DX009 (ip), vehicle: saline 102 % of control | dose: 50.0 mg/kg/injection, schedule: Q04DX003 (ip), vehicle: saline with Tween-80 96 % of control | dose: 100.0 mg/kg/injection, schedule: Q01DX009 (ip), vehicle: saline 100 % of control | [6] 93 % of control | dose: 200.0 mg/kg/injection, schedule: Q01DX009 (ip), vehicle: saline 101 % of control | [7] 96 % of control
